Values of other authors as cited in patent publication US20100221361A1, “STABLE OXIDIZING BROMINE COMPOSITION, METHOD OF MANUFACTURE AND USE THEREOF FOR BIOFOULING CONTROL” (priority 2009, published 2010).

Details: in water

For `BrBr` [elemental liquid bromine, bromine], the solubility is given as less than 4 g/ 100 g water.
